Tests used:
[1] = Antioxidant activity assessed as suppression of lipid peroxidation at 1 uM relative to control; format: functional
[2] = Antioxidant activity assessed as suppression of lipid peroxidation at 5 uM relative to control; format: functional
[3] = Inhibition of NADH oxidase (unknown origin) at 1 uM relative to control; conditions: Homo sapiens
[4] = Inhibition of NADH oxidase (unknown origin) at 5 uM relative to control; conditions: Homo sapiens

Row | SMILES | Activity [1] [%] | Activity [2] [%] | inhibition [3] [%] | inhibition [4] [%]
1 | CCCCCCCc1c(C)n(O)c(C)c(C(C)=O)c1=O | 11 | 2.2 | 74.5 | 44.5
2 | CCCCCCCc1c(C)n(O)c(C)cc1=O | 0 | 0 | – | –
3 | CCCCCCCCCCCCCCCCc1c(C)n(O)c(C)c(N)c1=O | 18 | 94 | 17.1 | 12.7
4 | CCCCCCCc1c(C)n(O)c(C)c(Cl)c1=O | 0 | 0 | – | –
5 | CCCCCCCc1c(C)n(O)c(C)c(N)c1=O | 14 | 9.6 | 92.9 | 76.7
6 | CCCCCCCCCCc1c(C)n(O)c(C)cc1=O | 0 | 0 | – | –
7 | C=Cc1c(C)n(O)c(C)c(CCCCCCC)c1=O | 0 | 0 | 29.7 | 20.7
8 | CCCCCCCCCCCCCCCCc1c(C)n(O)c(C)c(Br)c1=O | 7 | 15 | – | –
9 | CCCCCCCCCCc1c(C)n(O)c(C)c(Cl)c1=O | 0 | 0 | – | –
10 | C=Cc1c(C)n(O)c(C)c(CCCCCCCCCCCCCCCC)c1=O | 7 | 13 | 20.1 | 12
11 | CCCCCCCCCCc1c(C)n(O)c(C)c(Br)c1=O | 0 | 0 | – | –
12 | CCCCCCCc1c(C)n(O)c(C)c(Br)c1=O | 0 | 0 | – | –
13 | CCCCCCCCCCCCCCCCc1c(C)n(O)c(C)cc1=O | 10 | 20 | – | –

From ChEMBL document CHEMBL2321861, “Multifunctional radical quenchers for the treatment of mitochondrial dysfunction” (ACS Med Chem Lett, 2013)
